Earlier results on one molecule are cited in US12018199B2, “Fire retardant and fire blocking composition for use in forest fires, and method of making same” (priority 2020, dated 2024).

The conditions of the data set: in water.

SMILES strings stand for the structures. Like-named read-outs stand apart in the source and are kept apart here.

Take `NC(N)=O` [Urea, urea]: the Solubility is recorded as 66.7 g/100 g of water (0 °C); 108 g/100 g of water (20 °C); 167 g/100 g of water (40 °C); 251 g/100 g of water (60 °C); 400 g/100 g of water (80 °C); 733 g/100 g of water (100 °C).
